Reference: patent publication US7399761B2, “Phthalazine derivatives with angiogenesis inhibiting activity” (Novartis AG, priority 2001, dated 2008)

Tests used:
Cyp3A4 = molecular target: T1, Cyp3A4 (Homo sapiens, UniProt P08684); assay: CyP450-Inhibition, recombinant Cytochrome P450 isoenzymes, fluorometric assay; type: in vitro ADME; details: for IC50: recombinant CyP 450 enzyme, fluorescence-labelled substrate
T1 construct: host or cells: insect cells (named in the general description as the expression system for P450 cDNAs)
T1 sequence (P08684 whole entry): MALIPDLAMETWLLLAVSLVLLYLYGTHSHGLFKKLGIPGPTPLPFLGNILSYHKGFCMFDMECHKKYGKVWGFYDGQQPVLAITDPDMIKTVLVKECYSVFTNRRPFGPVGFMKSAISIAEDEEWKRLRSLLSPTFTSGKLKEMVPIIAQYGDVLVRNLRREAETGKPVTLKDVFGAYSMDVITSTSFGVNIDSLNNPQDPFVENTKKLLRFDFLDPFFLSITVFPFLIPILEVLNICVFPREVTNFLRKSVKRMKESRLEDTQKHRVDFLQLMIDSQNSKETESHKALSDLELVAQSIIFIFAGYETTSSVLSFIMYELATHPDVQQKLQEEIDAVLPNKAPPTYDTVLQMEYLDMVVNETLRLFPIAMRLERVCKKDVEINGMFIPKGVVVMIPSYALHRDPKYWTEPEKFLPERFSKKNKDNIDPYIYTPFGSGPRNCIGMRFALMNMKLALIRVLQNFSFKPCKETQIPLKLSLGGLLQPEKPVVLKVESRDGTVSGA
Description: (§1) This can be shown according to the following test system: Human liver microsomes or high level expression of cDNAs encoding Cytochrome P450 in insect cells provide a flexible source of materials for several in vitro measurement methods. A microtiter plate-based, direct fluorometric assay for the activities of any one or more of the principal drug metabolizing enzymes CYP1A2, CYP2C8, CYP2C9, CYP2C19, CYP2D6 and/or CYP3A4 is used in order to assess the potential for drug candidates to inhibit cytochrome P450.
(§2) Fluorescent marker substrates are incubated at concentrations close to their Michaelis-Men-ten affinity constant, Km. Inhibitors are tested in the 1 to 10 μM concentration range. 50% inhibition concentration (IC50 values) are estimated by non-linear regression of a two parameter model equation where the lower data limit is 0, i.e. the data are background corrected, and the upper data limit is 100, i.e. the data are range corrected. The equation assumes that y falls with increasing x. […] Extrapolation or interpolation of IC50 values beyond the concentration range studied are not provided.
(§3) Details for the assays and the technology that forms the basis for the assays are known (see C. L. Crespi et al., Analytical Biochemistry 248, 188-190 (1997), and CIL. Crespi et al., J. Pharmacol. Toxicol. Methods 44, 325-331 (2000), and the references mentioend therein). For example, 3-cyano-7-ethoxycoumarin is used as fluorescent substrate for CyP1A2, CYP2C9, CYP2C19 and CYP2D6, 7-methoxy-4-trifluoromethylcoumarin is used for CYP2C9, resorufin benzyl ether for CYP3A4, 3-82-(N,N-diethyl-N-methylammonium)ethyl]-7-methoxy-4-methylcoumarin for CYP2D6.
(§4) By the help of recombinant CyP 450 enzymes, the corresponding IC50 values for the compounds of formula I are determined. […] Description of the Assay: Fluorescence-labelled substrate compounds are incubated with different concentrations of test compound of formula I with recombinant Cytochrome P450 Isoenzymes. […] For details see above in the general description.

Cyp2C9 = molecular target: T2, Cyp2C9 (Homo sapiens, UniProt P11712); assay: as above; type: in vitro ADME; details: for IC50: recombinant CyP 450 enzyme, fluorescence-labelled substrate
T2 construct: host or cells: insect cells (named in the general description as the expression system for P450 cDNAs)
T2 sequence (P11712 whole entry): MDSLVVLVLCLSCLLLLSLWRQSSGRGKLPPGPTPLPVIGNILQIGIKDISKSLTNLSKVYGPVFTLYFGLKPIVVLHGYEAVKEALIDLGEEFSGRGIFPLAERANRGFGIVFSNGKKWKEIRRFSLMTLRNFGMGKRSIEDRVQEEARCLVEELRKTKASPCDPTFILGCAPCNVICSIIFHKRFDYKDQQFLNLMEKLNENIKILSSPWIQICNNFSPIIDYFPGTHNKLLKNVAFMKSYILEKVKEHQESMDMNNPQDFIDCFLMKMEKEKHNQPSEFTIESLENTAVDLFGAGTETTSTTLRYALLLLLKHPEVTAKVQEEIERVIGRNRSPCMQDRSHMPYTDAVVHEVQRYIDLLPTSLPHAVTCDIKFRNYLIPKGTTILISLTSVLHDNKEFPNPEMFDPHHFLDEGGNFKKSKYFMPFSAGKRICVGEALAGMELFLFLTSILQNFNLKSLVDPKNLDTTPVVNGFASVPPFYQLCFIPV
Description: as §1, §2, §3, §4

Cyp2C8 = molecular target: T3, Cyp2C8 (Homo sapiens, UniProt P10632); assay: as above; type: in vitro ADME; details: for IC50: recombinant CyP 450 enzyme, fluorescence-labelled substrate
T3 construct: host or cells: insect cells (named in the general description as the expression system for P450 cDNAs)
T3 sequence (P10632 1-490): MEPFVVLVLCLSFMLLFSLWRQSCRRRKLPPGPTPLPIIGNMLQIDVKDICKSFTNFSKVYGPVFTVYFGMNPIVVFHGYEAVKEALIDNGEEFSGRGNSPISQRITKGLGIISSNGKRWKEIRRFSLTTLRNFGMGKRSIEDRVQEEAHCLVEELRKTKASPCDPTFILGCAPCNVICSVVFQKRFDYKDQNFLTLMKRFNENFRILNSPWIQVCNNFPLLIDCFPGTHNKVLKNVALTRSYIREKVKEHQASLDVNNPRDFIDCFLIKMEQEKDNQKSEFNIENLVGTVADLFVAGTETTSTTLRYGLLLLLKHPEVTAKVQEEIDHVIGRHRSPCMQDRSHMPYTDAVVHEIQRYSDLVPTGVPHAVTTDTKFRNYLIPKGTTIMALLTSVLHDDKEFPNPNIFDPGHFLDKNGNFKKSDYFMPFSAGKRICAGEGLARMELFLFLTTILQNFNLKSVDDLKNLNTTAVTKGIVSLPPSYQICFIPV
Description: as §1, §2, §3, §4

[1] = molecular target: T4, Flt-1 VEGF-receptor tyrosine kinase (Homo sapiens, UniProt P17948); assay: Test for activity against Flt-1 VEGF-receptor tyrosine kinase; type: biochemical; details: kinase domain of Flt-1, poly(Glu,Tyr) 4:1, 8 μM [33P]-ATP, 15 minutes at room temperature
T4 construct: 10 ng of the kinase domain of Flt-1
T4 sequence (P17948 827-1158 limits assumed): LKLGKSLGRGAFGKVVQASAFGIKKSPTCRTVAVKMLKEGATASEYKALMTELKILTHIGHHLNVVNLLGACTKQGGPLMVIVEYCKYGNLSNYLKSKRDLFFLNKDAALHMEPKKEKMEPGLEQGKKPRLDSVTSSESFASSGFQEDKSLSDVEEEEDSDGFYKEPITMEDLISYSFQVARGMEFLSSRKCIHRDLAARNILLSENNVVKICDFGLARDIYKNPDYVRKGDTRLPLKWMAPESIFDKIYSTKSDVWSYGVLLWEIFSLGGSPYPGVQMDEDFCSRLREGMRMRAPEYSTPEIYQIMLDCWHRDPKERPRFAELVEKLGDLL
Protocol: Test for activity against VEGF-receptor tyrosine kinase: the test is conducted using Flt-1 VEGF-receptor tyrosine kinase. The detailed procedure is as follows: 30 μl kinase solution (10 ng of the kinase domain of Flt-1, Shibuya et al., Oncogene 5, 519-24 [1990]) in 20 mM Tris.HCl pH 7.6, 3 mM manganese dichloride (MnCl2), 3 mM magnesium chloride (MgCl2) and 3 μg/ml poly(Glu,Tyr) 4:1 (Sigma, Buchs, Switzerland), 8 μM [^33P]-ATP (0.2 μCi/batch), 1% dimethyl sulfoxide, and 0 to 50 μM of the compound to be tested are incubated together for 15 minutes at room temperature. The reaction is then ended by the addition of 10 μl 0.25 M ethylenediaminetetraacetate (EDTA) pH 7. Using a multichannel dispenser (LAB SYSTEMS, USA), an aliquot of 20 μl is applied to a PVDF (=polyvinyl difluoride) Immobilon P membrane (Millipore, USA), which is incorporated into a Millipore microtitre filter manifold, and connected to a vacuum. Following complete elimination of the liquid, the membrane is washed 4 times successively in a bath containing 0.5% phosphoric acid (H3PO4), incubated for 10 minutes each time while shaking, then mounted in a Hewlett Packard TopCount Manifold and the radioactivity measured after the addition of 10 μl Microscint® (β-scintillation counter liquid; Packard USA). […]
The IC50 values determined are given below, insofar as they have been accurately determined: […]

Row | IC50 (Cyp3A4) | IC50 (Cyp2C9) | IC50 (Cyp2C8) | IC50 [1] | other results | SMILES
1 | < 1000 nM | < 1000 nM | 5000 nM |  |  | CCc1ccc(Nc2nnc(Cc3ccncc3)c3ccccc23)cc1Br [WO 00/59509 (Ex. 14 q), reference compound]
2 |  |  |  |  | melting point: 266 to 267 °C (dec.) | CC(C)[C@H]1CC[C@H](Nc2nnc(Cc3ccnc(O)c3)c3ccccc23)CC1 [Example 1, trans 1-(4-Isopropyl-cyclohexylamino)4-[2-hydroxy-(pyridin-4-yl)methyl]-phthalazine]
3 |  |  |  | 1200 nM |  | COc1cc(Cc2nnc(N[C@H]3CC[C@H](C(C)C)CC3)c3ccccc23)ccn1 [Example 1 d)]
4 | 2800 nM | 3500 nM | > 10000 nM |  | lower inhibition when compared with Ex. 14 q from WO 00/59509 (Cyp3A4; ratio of IC50 values): more than two-fold; lower inhibition when compared with Ex. 14 q from WO 00/59509 (Cyp2C9; ratio of IC50 values): more than two-fold; lower inhibition when compared with Ex. 14 q from WO 00/59509 (Cyp2C8; ratio of IC50 values): more than two-fold | CCc1ccc(Nc2nnc(Cc3ccc(=O)[nH]c3)c3ccccc23)cc1Br [Ex. 8]
5 |  |  |  | 1900 nM |  | CCc1ccc(Nc2nnc(Cc3ccnc(OC)c3)c3ccccc23)cc1Br [Example 2 d), 1-(3-Bromo-4ethyl-anilino)-4-[2-methoxy-(pyridin-4-yl)-methyl]-phthalazine]
